According to patent US8247533B2, “Beta helical peptide structures stable in aqueous and non-aqueous media” (The United States of America, as represented by the …, priority 2007, dated 2012):
≈ marks a conversion by molar mass, not a printed value. Peptide text beside a SMILES is read from it.

Tests used:
[1] = Circular dichroism (CD) thermal denaturation study; type: physicochemical
Excerpt: (§1) The water solubility of these peptides/peptidometrics is defined by the correct choice of sidechain functionalities.

physchem = details: aqueous medium
Excerpt: as §1

[2] = Solubility in organic solvents (purification work); type: physicochemical
Description: However, dissolution of the crude peptide in HFIP at a concentration of about 80 mg mL^−1, followed by twofold dilution with HFA.3H2O, furnished a solution that was suitable for use in RP-HPLC.
The next attempt to repurify fraction a of the RP-HPLC purified material using gravity-driven GPC on Sephadex LH-20. These efforts were complicated by the lack of a suitable pure solvent that would satisfy the following criteria: (1) the solvent must be able to dissolve the partially purified peptide, and (2) the solvent must be sufficiently polar to prevent irreversible adsorption of the peptide to the LH-20 stationary phase. One choice was CHCl3, in which the peptide is soluble to about. 20 mM; CHCl3, however, is a nonpolar solvent. Moreover, CHCl3 is denser than LH-20 and therefore inconvenient for GPC using gravity-driven flow. However, the solvent mixture CHCl3/MeOH (65:35) satisfies both of the criteria stated above; in addition, this mixture is less dense than LH-20. A single pass of fraction a through a 2.5×55 cm column of LH-20 in CHCl3/MeOH gave material that was ≧95% pure as estimated by 1D ^1H NMR (FIG. 9c). Furthermore, even fraction b of the RP-HPLC-purified material, which contained about 30% contaminant (FIG. 9b), could be purified in this manner. […]

CC(C)C[C@H]1NC(=O)CNC(=O)[C@@H]2CCCN2C(=O)[C@@H](C)NC(=O)[C@H]([C@@H](C)O)NC(=O)[C@@H](CC(C)C)NC(=O)[C@H]([C@@H](C)O)NC(=O)[C@@H](C(C)C)NC(=O)[C@H](CCCCN)NC(=O)[C@@H](CC(C)C)NC(=O)[C@H](CCC(=O)O)NC(=O)[C@@H](C)NC(=O)CNC(=O)[C@@H]2CCCN2C(=O)[C@@H](C(C)C)NC(=O)[C@H]([C@@H](C)O)NC(=O)[C@@H](C)NC(=O)[C@H]([C@@H](C)O)NC(=O)[C@@H](CC(C)C)NC(=O)[C@H](CCCNC(=N)N)NC(=O)[C@@H](C(C)C)NC(=O)[C@H](CCC(=O)O)NC1=O [Peptide 1] (HELM PEPTIDE1{[dL].E.[dV].R.[dL].T.[dA].T.[dV].P.G.[dA].E.[dL].K.[dV].T.[dL].T.[dA].P.G}$PEPTIDE1,PEPTIDE1,1:R1-22:R2$$$V2.0)
change of beta-hairpin structure (CD) with temperature ([1]; aqueous state, 100 mM phosphate buffered saline buffer, about 5° C. to about 95° C.): does not change
temperature up to which helical structure resists thermal denaturation (CD) ([1]; in methanol and trifluoroethanol): up to 85 °C
solubility (physchem): > 10 mM

CC(C)[C@@H]1NC(=O)CNC(=O)[C@H]2CCCN2C(=O)[C@H](C(C)C)NC(=O)[C@@H](C(C)C)NC(=O)[C@H](C(C)C)NC(=O)[C@@H](C(C)C)NC(=O)[C@H](C(C)C)NC(=O)[C@@H](C(C)C)NC(=O)[C@H](C(C)C)NC(=O)[C@@H](C(C)C)NC(=O)[C@H](C(C)C)NC(=O)CNC(=O)[C@H]2CCCN2C(=O)[C@H](C(C)C)NC(=O)[C@@H](C(C)C)NC(=O)[C@H](C(C)C)NC(=O)[C@@H](C(C)C)NC(=O)[C@H](C(C)C)NC(=O)[C@@H](C(C)C)NC(=O)[C@H](C(C)C)NC(=O)[C@@H](C(C)C)NC1=O [Peptide 3, cyclo{[(L-Val-D-Val)4-(L-Val-D-Pro-Gly)]2-}] (HELM PEPTIDE1{V.[dP].G.V.[dV].V.[dV].V.[dV].V.[dV].V.[dP].G.V.[dV].V.[dV].V.[dV].V.[dV]}$PEPTIDE1,PEPTIDE1,1:R1-22:R2$$$V2.0)
solubility ([2]; CHCl3, partially purified peptide): ~20 mM (≈ 41.9 mg/mL)
solubility in solvents typically used for RP-HPLC ([2]; crude peptide, MeOH, EtOH, i-PrOH, and CH3CN): insoluble
